Experimental data as given in US20100087399A1 (priority 2007, published 2010).
Where “and” joins values, the source holds several entries; their conditions need not be identical. Equal entries are not always repeated.

Columns and labels:
SK-OV-3 cells = assay: Survival of nude mice intraperitoneally injected with SK-OV-3 cells; assay type: in vivo; settings: 0 mg/kg CMA
NF κB [1] = assay: NF κB activation caused by chemotherapeutic agent in OVCAR-3 cells; assay type: cell-based, human; parameters: level of active NF κB (as percents of control) in the absence of CMA: concentration or dose not given beside the values; settings: for level of active NF κB (as percents of control) in the presence of CMA: its salt or ester 1 × 10^−12 M
Procedure: (§1) The level of active NF κB in cell extract was measured with StressXpress NF κB, p50 ELISA Kit (StressGen, cat. No EKS-445) and luminescent spectrophotometer SM 2203 (Solar, Belarus).
The experiments were performed as described in Example 1. The human ovarian carcinoma cell lines OVCAR-3 was used. The cells were incubated at 37° C. in RPMI 1640 medium supplemented with 10% embryonic calf serum. […] Corresponding chemical agent or the vehicle (control) was added to the culture medium simultaneously with CMA, its salt or ester (1×10^−12 M). The cells were separated by centrifugation. The level of active NF κB was assessed in nuclear lysate.

ovarian cancer [2] = assay: Clinical case reports of combined therapy of ovarian cancer (Examples 7-9); assay type: in vivo, human; settings: Example 7: stage III patient; 2 courses of cisplatin alone
alpha interferon = assay: Serum alpha interferon in SK-OV-3 tumor-bearing nude mice (ELISA); assay type: in vivo; settings: 0 mg/kg CMA
NF κB [3] = assay: Level of active NF κB in cancer cells of ascitic fluid of SK-OV-3 tumor-bearing nude mice; assay type: in vivo; settings: 0 mg/kg CMA
Procedure: as §1
To study the ability of different amounts of CMA to inhibit the NF κB activity, tumor growth and to increase the survival rate in combination with a chemotherapeutic agent, BALB/c female nude mice (6 to 8 weeks of age) were intraperitoneally injected with SK-OV-3 cells (1×10^7 cells/0.5 ml media/mouse). The all mice were divided into the several groups of animals (32 animals per group) which were treated with different doses of CMA, its salts or its ester. All mice were injected also ether with vehicle (diluent) or with chemotherapeutic agent or with or combinations of chemotherapeutic agent. Some groups were injected additionally with one or other aromatase inhibior, along with chemotherapeutic agent. Cisplatin (CP) was administered at dose 5 mg/kg intraperitoneally once weekly for the first 3 weeks; Doxorubicin (Dox) was given 8 mg/kg intravenously on days 0 and 7; Paclitaxel (Pcl) was injected intravenously at dose 10 mg/kg body weight thrice weekly, on alternate days for 4 weeks; 10 mg/kg/day. Toremifen was administered per os at dose 10 mg/kg/day in starch gel. Anastozole was injected subcutaneously with 5 μg of […] in 0.1 mL of PBS. CMA was administered once a day on each second day.
Also, the day of 50% survival rate was scored for other 16 animals in each group group. The serum alpha interferon (alpha IFN) level was measured 2 hours after first administration of CMA, its salts or it ester. Mouse IFN-alpha was measured in serum was detected (in pg/ml) using the enzyme-linked immunosorbent assay kit purchased from PBL Biomedical Laboratories (USA, Piscataway, N.J.).

NF κB [4] = assay: Level of active NF κB in primary human ovarian cancer cells from ascitic fluid (StressXpress NF κB p50 ELISA); assay type: cell-based; settings: 8 hours
ovarian cancer [5] = settings: intraperitoneal alpha-interferon in combination with carboplatinum; cited from earlier work
ovarian cancer [6] = settings: gamma-interferon added to cisplatinum+cyclophosphamide; cited from earlier work

N.N.[Cl][Pt][Cl] [Cisplatin, cisplatin]
day when 50% of animals in the group were still alive (SK-OV-3 cells; Cisplatin (CP) alone): 34 days and 44 days and 42 days
level of active NF κB (as percents of control) in the absence of CMA (NF κB [1]; Cisplatin alone): 117% and 121% and 120% and 119% and 118% and 125% and 122%
clinical outcome (ovarian cancer [2]): No therapy effects were observed
interferon level (mean) (alpha interferon; Cisplatin (CP) alone): 4 pg/mL and 2 pg/mL and 3 pg/mL
level of NF kB (mean) (NF κB [3]; Cisplatin (CP) alone): 380 percent from the control and 356 percent from the control and 420 percent from the control

O=P1(N(CCCl)CCCl)NCCCO1 (centres unmarked) [Cyclophosphamide, cyclophosphamide]
level of active NF κB (as percents of control) in the absence of CMA (NF κB [1]; Cyclophosphamide alone): 221% and 217% and 210% and 214%

COc1cccc2c1C(=O)c1c(O)c3c(c(O)c1C2=O)C[C@@](O)(C(=O)CO)C[C@@H]3O[C@H]1C[C@H](N)[C@H](O)[C@H](C)O1 [Doxorubicin, doxorubicin]
day when 50% of animals in the group were still alive (SK-OV-3 cells; Doxorubicin (Dox) alone): 36 days and 37 days and 43 days
level of active NF κB (as percents of control) in the absence of CMA (NF κB [1]; Doxorubicin alone): 524% and 538% and 550% and 497% and 562% and 540% and 531%
interferon level (mean) (alpha interferon; Doxorubicin (Dox) alone): 3 pg/mL and 4 pg/mL and 5 pg/mL
level of NF kB (mean) (NF κB [3]; Doxorubicin (Dox) alone): 450 percent from the control and 470 percent from the control and 430 percent from the control

CC(=O)O[C@H]1C(=O)[C@@]2(C)[C@H]([C@H](OC(=O)c3ccccc3)[C@]3(O)C[C@H](OC(=O)[C@H](O)[C@@H](NC(=O)c4ccccc4)c4ccccc4)C(C)=C1C3(C)C)[C@]1(OC(C)=O)CO[C@@H]1C[C@@H]2O [Paclitaxel, paclitaxel, reference compound]
day when 50% of animals in the group were still alive (SK-OV-3 cells; Paclitaxel (Pcl) alone): 41 days and 40 days and 38 days
interferon level (mean) (alpha interferon; Paclitaxel (Pcl) alone): 8 pg/mL and 6 pg/mL and 5 pg/mL
level of NF kB (mean) (NF κB [3]; Paclitaxel (Pcl) alone): 420 percent from the control and 411 percent from the control and 442 percent from the control

CCCOC(=O)Cn1c2ccccc2c(=O)c2ccccc21 [PropCMA]
active NF κB (in percents of control) (NF κB [4]; 1 × 10^−10 M, Patient 1): 32%/10
active NF κB (in percents of control) (NF κB [4]; 1 × 10^−10 M, Patient 2): 31%/20
active NF κB (in percents of control) (NF κB [4]; 1 × 10^−10 M, Patient 3): 36%/20
active NF κB (in percents of control) (NF κB [4]; 1 × 10^−12 M, Patient 1): 68%/10
active NF κB (in percents of control) (NF κB [4]; 1 × 10^−12 M, Patient 2): 59%/20
active NF κB (in percents of control) (NF κB [4]; 1 × 10^−12 M, Patient 3): 64%/20
active NF κB (in percents of control) (NF κB [4]; 1 × 10^−13 M, Patient 1): 89%/0
active NF κB (in percents of control) (NF κB [4]; 1 × 10^−13 M, Patient 2): 91%/0
active NF κB (in percents of control) (NF κB [4]; 1 × 10^−13 M, Patient 3): 81%/0
level of active NF κB (as percents of control) in the presence of CMA (NF κB [1]; 5-FU + CMA): 86%
level of active NF κB (as percents of control) (NF κB [1]; CMA, its salt or ester 1 × 10^−12 M + Vechicle): 84%
level of active NF κB (as percents of control) in the presence of CMA (NF κB [1]; Cisplatin + CMA): 66%
level of active NF κB (as percents of control) in the presence of CMA (NF κB [1]; Cyclophosphamide + CMA): 95%
level of active NF κB (as percents of control) in the presence of CMA (NF κB [1]; Doxorubicin + CMA): 178%

alpha-interferon
efficacy in respect of ovarian cancer (ovarian cancer [5]): did not prove any efficacy

gamma-interferon: cytokine immunomodulator with antiviral and antitumor activity
number of patients who had no progression within the 3 year period (ovarian cancer [6]): 51%
